In one experiment the test system is male CD1 mice. In words: In vivo predictive sedation-hypnosis test (traveled distance). Conditions: Mus musculus, ip, 0.5 h, traveled distance over 30 min versus control, read-out: % inhib motor activity; for inhibition in vivo at 0.98 µmol/kg: 0.98 μmol/kg intraperitoneal; for inhibition in vivo at 98 µmol/kg: 98.0 μmol/kg intraperitoneal. The procedure: b) In Vivo Determination of Predictive Sedative-hypnotic Action
The in vivo effects of these compounds were assessed by a predictive sedation-hypnosis test in mice (D. J. Sanger et al., Eur. J. Pharmacol., 313, 35-42, 1996; and G. Griebel et al., Psychopharmacology, 146, 205-213, 1999).
Groups of 5-8 male CD1 mice, weighing 22-26 g at the time of test, were used. […] Compounds were suspended in 0.25% agar with one drop of Tween in a volume of 10 mL/kg. Control animals were given the vehicle alone. Using a Smart System (Panlab, S. L., Spain) the traveled distance in cm is recorded for each mouse at 5-minutes intervals during a period of 30 minutes after dosing. The inhibition percentage of traveled distance of treated animals versus control animals (the first 5 minutes were discarded) was calculated.

Another experiment relates to α2-GABAA receptor. Put plainly: Ligand-binding assay, radiolabeled flumazenil competition, spinal cord membranes. Conditions: rat spinal cord membranes, radiolabeled flumazenil 1 nM. The procedure:
(§1) a) Ligand-binding Assays. Determination of the Affinity of Test Compounds for α1- and α2-GABAA Receptor
(§2) Male Sprague-Dawley rats weighing 200-250 g at the time of experiment were used. After decapitation of the animal, the cerebellum (tissue that mostly contains α1-GABAA receptor) and spinal cord (tissue that mostly contains α2-GABAA receptor) were removed. The membranes were prepared according to the method by J. Lameh et al. (Prog. Neuro-Psychopharmacol. Biol. Psychiatry, 24, 979-991, 2000) and H. Noguchi et al. (Eur J Pharm, 434, 21-28, 2002) with slight modifications. Once the tissues weighed, they were suspended in 50 mM Tris.HCl (pH 7.4), 1:40 (v/v), or sucrose 0.32 M in the case of spinal cord, homogenized and then centrifuged at 20000 g for 10 minutes at 7° C. The resulting pellet was resuspended under the same conditions and centrifuged again. The pellet was finally resuspended on a minimum volume and kept at −80° C. overnight. A slight modification was used in the case of spinal cord at the first centrifugation step. Centrifugation speed was at 1000 g and the supernatant was collected instead of discarded as in cerebellum. Then, supernatant was centrifuged at 20000 g and resuspended twice more under the same conditions described above for cerebellum. On the next day, the process was repeated until the final pellet was resuspended at a ratio of 1:10 (v/v) in the case of cerebellum and at a ratio of 1:5 (v/v) in the case of spinal cord.
(§3) Affinity was determined by competitive tests using radiolabeled flumazenil as ligand. The tests were performed according to the methods described by S. Arbilla et al. (Eur. J. Pharmacol., 130, 257-263, 1986); and Y. Wu et al. (Eur. J. Pharmacol., 278, 125-132, 1995) using 96-well microtiter plates. The membranes containing the study receptors, flumazenil (radiolabeling at a final concentration of 1 nM) and ascending concentrations of test compounds (in a total volume of 230 μl in 50 mM [pH 7.4] Tris.HCl buffer) were incubated. Simultaneously, the membranes were only incubated with the radiolabeled flumazenil (total binding, 100%) and in the presence of an elevated concentration of unradiolabeled flumazenil (non-specific binding, % estimation of radiolabeled ligand). The reactions started on adding the radiolabeled ligand followed by incubation for 60 minutes at 4° C. At the end of the incubation period, 200 μl of reaction were transferred to a multiscreen plate (Millipore) and filtered using a vacuum manifold and then washed three times with cold test buffer. The multiscreen plates were equipped with a GF/B filter that retained the membranes containing the receptors and the radiolabeled ligand which had been bound to the receptors. After washing, the plates were left till dry. Once dried, scintillation liquid was added and left under stirring overnight. The next day the plates were counted using a Perkin-Elmer Microbeta scintillation counter.
(§4) For analysis of the results the percentage of specific binding for every concentration of test compound was calculated as follows: specific binding−(X−N/T−N)×100 where, X: amount of bound ligand for every concentration of compound. T: total binding, maximum amount bound to the radiolabeled ligand. N: non-specific binding, amount of radiolabeled ligand bound in a non-specific way irrespective of the receptor used.
(§5) Every concentrations of compound were tested in triplicate and their mean values were used to determine the experimental values of % specific binding versus the concentration of compound. Affinity data are expressed as % inhibition at 10^−5M and 10^−7M concentrations.

A further experiment relates to α1-GABAA receptor. Put plainly: Ligand-binding assay, radiolabeled flumazenil competition, cerebellum membranes. Conditions: rat cerebellum membranes, radiolabeled flumazenil 1 nM. The protocol: as §1, §2, §3, §4, §5

SMILES strings stand for the structures.

`CCCN(CCC)C(=O)Cc1c(-c2ccc(Cl)cc2)nc2ccc(OCC)nn12` [Example 23, 2-[2-(4-Chloro-phenyl)-6-ethoxy-imidazo[1,2-b]pyridazin-3-yl]-N,N-dipropyl-acetamide]: in the experiment on male CD1 mice, the inhibition in vivo at 0.98 µmol/kg was 12.4% and the inhibition in vivo at 98 µmol/kg was 91.7%.
In the case of `CCCCN(CCCC)C(=O)Cc1c(-c2ccc(Cl)cc2)nc2ccc(OCC)nn12` [Example 24, N,N-Dibutyl-2-[2-(4-chloro-phenyl)-6-ethoxy-imidazo[1,2-b]pyridazin-3-yl]-acetamide], in the experiment with male CD1 mice, the inhibition in vivo at 0.98 µmol/kg was 3.65% and the inhibition in vivo at 98 µmol/kg was 86.5%.
Regarding `CCCN(CCC)C(=O)Cc1c(-c2ccccc2)nc2ccc(OC)nn12` [Example 26, 2-(6-Methoxy-2-phenyl-imidazo[1,2-b]pyridazin-3-yl)-N,N-dipropyl-acetamide], in the experiment with α2-GABAA receptor, the “% inhib 10^−5 M, affinity for the α2-subunit of the GABAA receptor” value was found to be 84.5% and the “% inhib 10^−7 M, affinity for the α2-subunit of the GABAA receptor” value amounted to 27.4%. For the same compound, in the experiment on male CD1 mice, the inhibition in vivo at 0.98 µmol/kg was 19.2% and the inhibition in vivo at 98 µmol/kg was 91.5%. Besides, in the experiment with α1-GABAA receptor, the “% inhib 10^−5 M, affinity for the α1-subunit of the GABAA receptor” value was determined as 100.0% and the “% inhib 10^−7 M, affinity for the α1-subunit of the GABAA receptor” value turned out to be 73.5%.
Take `CCCN(CCC)C(=O)Cc1c(-c2ccccc2)nc2ccc(C)nn12` [Example 35, 2-(6-Methyl-2-phenyl-imidazo[1,2-b]pyridazin-3-yl)-N,N-dipropyl-acetamide]: in the experiment with α2-GABAA receptor, the “% inhib 10^−5 M, affinity for the α2-subunit of the GABAA receptor” value worked out at 92.5% and the “% inhib 10^−7 M, affinity for the α2-subunit of the GABAA receptor” value came to 57.9%. Also, in the experiment on male CD1 mice, the inhibition in vivo at 0.98 µmol/kg was 6.76% and the inhibition in vivo at 98 µmol/kg was 80.6%. Also, in the experiment with α1-GABAA receptor, the “% inhib 10^−5 M, affinity for the α1-subunit of the GABAA receptor” value is reported as 100.2% and the “% inhib 10^−7 M, affinity for the α1-subunit of the GABAA receptor” value is reported as 97.5%.
With `CCCCN(CCCC)C(=O)Cc1c(-c2ccc(F)cc2)nc2ccc(C)nn12` [Example 40, N,N-Dibutyl-2-[2-(4-fluoro-phenyl)-6-methyl-imidazo[1,2-b]pyridazin-3-yl]-acetamide], in the experiment with male CD1 mice, the inhibition in vivo at 98 µmol/kg is 91.8%.
The same measure, in the same setting: for `CCCCN(CCCC)C(=O)Cc1c(-c2ccc(F)cc2)nc2ccc(OC)nn12` [Example 42, N,N-Dibutyl-2-[2-(4-fluoro-phenyl)-6-methoxy-imidazo[1,2-b]pyridazin-3-yl]-acetamide] the value was 91%; for `CCCCN(CCCC)C(=O)Cc1c(-c2ccc(OC)cc2)nc2ccc(C)nn12` [Example 72, N,N-Dibutyl-2-[2-(4-methoxy-phenyl)-6-methyl-imidazo[1,2-b]pyridazin-3-yl]-acetamide], 93.3%.
With `CCCCN(CCCC)C(=O)Cc1c(-c2ccc(OC)cc2)nc2ccc(OC)nn12` [Example 77, N,N-Dibutyl-2-[6-methoxy-2-(4-methoxy-phenyl)-imidazo[1,2-b]pyridazin-3-yl]-acetamide], the inhibition in vivo at 98 µmol/kg in the experiment with male CD1 mice is 89.3%.
On to `COc1ccc(-c2nc3ccc(OC)nn3c2CC(=O)N2CCCCC2)cc1` [Example 78, 2-[6-Methoxy-2-(4-methoxy-phenyl)-imidazo[1,2-b]pyridazin-3-yl]-1-piperidin-1-yl-ethanone], for which the inhibition in vivo at 98 µmol/kg in the experiment on male CD1 mice was 91.1%. For the same compound, in the experiment on α1-GABAA receptor, the “% inhib 10^−5 M, affinity for the α1-subunit of the GABAA receptor” value is listed as 98.3% and the “% inhib 10^−7 M, affinity for the α1-subunit of the GABAA receptor” value worked out at 26.5%.
With `CCCN(CCOC(C)=O)C(=O)Cc1c(-c2ccc(C)cc2)nc2ccc(C)nn12` [Example 80, Acetic acid 2-{[2-(6-methyl-2-p-tolyl-imidazo[1,2-b]pyridazin-3-yl)-acetyl]-propyl-amino}-ethyl ester], in the experiment on male CD1 mice, the inhibition in vivo at 98 µmol/kg is 94.4%.
For `Cc1ccc(-c2nc3ccc(C)nn3c2CC(=O)N2CC(C)CC(C)C2)cc1` (stereo not drawn) [Example 81, 1-(3,5-Dimethyl-piperidin-1-yl)-2-(6-methyl-2-p-tolyl-imidazo[1,2-b]pyridazin-3-yl)-ethanone], the inhibition in vivo at 98 µmol/kg in the experiment on male CD1 mice was 90.8%.
As to `Cc1ccc(NC(=O)Cc2c(-c3ccc(C)cc3)nc3ccc(C)nn23)cc1` [Example 87, 2-(6-Methyl-2-p-tolyl-imidazo[1,2-b]pyridazin-3-yl)-N-p-tolyl-acetamide], in the experiment with male CD1 mice, the inhibition in vivo at 98 µmol/kg is 90.7%. In addition, in the experiment with α1-GABAA receptor, the “% inhib 10^−5 M, affinity for the α1-subunit of the GABAA receptor” value stood at 99.3% and the “% inhib 10^−7 M, affinity for the α1-subunit of the GABAA receptor” value is 57.2%.
The like results for `Cc1ccc(-c2nc3ccc(C)nn3c2CC(=O)NC2CCCC2)cc1` [Example 91, N-Cyclopentyl-2-(6-methyl-2-p-tolyl-imidazo[1,2-b]pyridazin-3-yl)-acetamide] were, in that order, 93%, 99.1% and 45.8%.
For the compound `Cc1ccc(-c2nc3ccc(C)nn3c2CC(=O)NC2CC2)cc1` [Example 93, N-Cyclopropyl-2-(6-methyl-2-p-tolyl-imidazo[1,2-b]pyridazin-3-yl)-acetamide], in the experiment with male CD1 mice, the inhibition in vivo at 98 µmol/kg is 93.2%. In the experiment with α1-GABAA receptor, the “% inhib 10^−5 M, affinity for the α1-subunit of the GABAA receptor” value stood at 100.0% and the “% inhib 10^−7 M, affinity for the α1-subunit of the GABAA receptor” value is on record as 78.2%.
For `Cc1ccc(-c2nc3ccc(C)nn3c2CC(=O)Nc2ccc3ccccc3n2)cc1` [Example 94, 2-(6-Methyl-2-p-tolyl-imidazo[1,2-b]pyridazin-3-yl)-N-quinolin-2-yl-acetamide] the same measures were 93.5%, 100.1% and 65.1%.
As for `Cc1ccc2nc(-c3ccc(Br)cc3)c(CC(=O)NN)n2n1` [Example 100, [2-(4-Bromo-phenyl)-6-methyl-imidazo[1,2-b]pyridazin-3-yl]-acetic acid hydrazide], the inhibition in vivo at 98 µmol/kg in the experiment on male CD1 mice is 93.7%.
`Cc1ccc2nc(-c3ccc(Cl)cc3)c(CC(=O)NN)n2n1` [Example 102, [2-(4-Chloro-phenyl)-6-methyl-imidazo[1,2-b]pyridazin-3-yl]-acetic acid hydrazide]: in the experiment with male CD1 mice, the inhibition in vivo at 98 µmol/kg was 85.5%.
On to `Cc1ccc(-c2nc3ccc(C)nn3c2CC(=O)NN2CCOCC2)cc1` [Example 105, 2-(6-Methyl-2-p-tolyl-imidazo[1,2-b]pyridazin-3-yl)-N-morpholin-4-yl-acetamide], for which, in the experiment on male CD1 mice, the inhibition in vivo at 98 µmol/kg was 94%. Moreover, in the experiment on α1-GABAA receptor, the “% inhib 10^−5 M, affinity for the α1-subunit of the GABAA receptor” value came out at 98.8% and the “% inhib 10^−7 M, affinity for the α1-subunit of the GABAA receptor” value is recorded as 56.0%.
The like results for `Cc1ccc(-c2nc3ccc(C)nn3c2CC(=O)NN2CCCCC2)cc1` [Example 106, 2-(6-Methyl-2-p-tolyl-imidazo[1,2-b]pyridazin-3-yl)-N-piperidin-1-yl-acetamide] were, in that order, 94%, 99.5% and 53.7%.
